According to patent US20260217702A1, “NOVEL IMIDAZOQUINOLINES WITH IMMUNOSTIMULATORY EFFECTS” (Synovo GmbH, priority 2022, published 2026):

What was measured:
IFNa relative to TNFa = experiment: Stimulation of cytokines in vivo (plasma cytokines, cytometric bead array); conditions: female C57B6/J mice, i.p., 12 μmol/kg, citrate in saline, EDTA plasma at various times; reference Resiquimod
Procedure: Female C57B6/J mice ca 18-20g ca. 8 weeks old are treated i.p. with E1 or E13 (citrate in saline) at a dose of12 μmol/kg. The reference substance is Resiquimod. At various times after application blood samples of approximately 25 μl are taken from the tail vein. The resulting EDTA plasma is analysed for cytokines using a cytometric bead array.

CT26 tumor = experiment: Application in cancer therapy: CT26 tumor in BALBc mice; format: in vivo; conditions: i.p.
Procedure: Female BALBc mice carrying the CT26 tumor type are monitored until tumors are 100-150 mm^3 in volume. Animals are treated via injection i.p. with substances formulated at citrate salts in saline solution. Doses for E 1 are 3, 6 and 12 μmol/kg. At 12 μmol/kg, weight loss of ca. 5% is observed within 24 h. […] In a similar format, Female C57B6 mice carrying the MC38 tumor type co-injected with myofibroblasts (5 fibroblasts: 1 tumor cell-50,000, tumor cells) are monitored until tumors are 100-150 mm^3 in volume. Animals are treated via injection i.p. with either Vehicle or a Rat anti-PD-1 antibody (RMP1-14-CP157) 100 μg, or peritumoral 20 or 50 μg every 96 h. Certain groups receive the antibody alone, or receive in addition, E1 6 μmol/kg or E13 6 μmol/kg, other groups receive E1 and E13 alone at the same dose. Weight loss is similar to the study above and is between 5 and 8% of the starting weight for all treatments. Tumors treated with E1 or E13 alone remain static or decrease in size by up to 30% in size for up to 72 h following treatment. Tumors treated with E1 or E13 in combination with antiPD-1 decline (2 from 8) or are eliminated completely (6 from 8 animals) after the third antibody treatment.

weight loss (CT26 tumor; female BALBc mice with CT26 tumor, citrate salt in saline, 12 μmol/kg, within 24 h)	SMILES	secretion of IFNa relative to TNFa (ratio) compared to the reference (IFNa relative to TNFa)	tumor size following treatment (CT26 tumor; CT26 tumors 100-150 mm^3 at start, doses 3, 6 and 12 μmol/kg, for up to 72 h following treatment)
ca. 5%	CCCCc1nc2c(N)nc3ccccc3c2n1CC1CCNCC1 [Example E1, 2-butyl-1-(piperidin-4-ylmethyl)-1H-imidazo[4,5-c]quinolin-4-amine]	higher ratio	remain static in size
	CCCCc1nc2c(N)nc3ccccc3c2n1CCC1CCN(C(=O)CN(C)CC(=O)N(C)[C@H]2C[C@@H](C)O[C@@H](C[C@@H]3[C@@H](C)[C@H](O[C@H]4C[C@@](C)(OC)[C@@H](O)[C@H](C)O4)[C@@H](C)C(=O)O[C@H](CC)[C@@](C)(O)[C@H](O)[C@@H](C)N(C)C[C@H](C)C[C@@]3(C)O)[C@@H]2O)CC1 [Example E13]	higher ratio	
